Data on 57 compounds can be found in patent publication US4115385A, “Antibacterial 3-(5-tetrazolyl) penam compounds” (Pfizer Inc., priority 1977, dated 1978).

Converted amounts (≈) assume the structure as drawn.

The first assay concerns Streptococcus pyogenes. The assay is described as follows: In vitro minimum inhibitory concentration (MIC) vs. Strep. pyogenes. It counts as cell-based. To be noted: Streptococcus pyogenes, read-out: MIC vs. Strep. pyogenes. The procedure:
The antibacterial penam compounds of the instant invention show activity against a wide variety of gram-positive and gram-negative bacteria. […] The broth is inoculated with the bacterial culture, and with the test antibiotic, and then it is incubated overnight. On the next day, the test is read visually. The minimum inhibitory concentration (MIC) is the lowest concentration of antibiotic which prevents turbidity, i.e., which prevents growth of the microorganism. In vitro activities of several of the penam compounds of the invention are presented later in this specification.
In Table II, the minimum inhibitory concentrations (MIC's) of compounds of formula I, wherein R^2 is hydrogen, against a strain of Streptococcus pyogenes, are reported; and in Table III, minimum inhibitory concentrations of compounds of formula I, wherein R^2 is hydrogen, against a strain of Staphylococcus aureus, are presented. Because of the tautomeric nature of such tetrazole derivatives, referred to hereinbefore,each of the preparations tested also contains some of the corresponding compound of formula II, wherein R^3 is hydrogen.
The MIC is the lowest concentration that inhibits growth of the organism. Consider `CC1(C)S[C@@H]2[C@H](NC(=O)[C@H](NC(=O)CNC(=O)NC(=N)Cc3ccc(Cl)cc3)c3ccccc3)C(=O)N2[C@H]1c1nnn[nH]1`, for which the MIC is < 0.1 µg/mL.
Still for that read-out and setting: for `CC1(C)S[C@@H]2[C@H](NC(=O)[C@H](NC(=O)NC(=O)C34CC5CC(CC(C5)C3)C4)c3ccccc3)C(=O)N2[C@H]1c1nn[nH]n1` the value was < 0.1 µg/mL.
The same measure, in the same setting: for `CC1(C)S[C@@H]2[C@H](NC(=O)[C@H](NC(=O)NC(=O)c3cccnc3)c3ccccc3)C(=O)N2[C@H]1c1nn[nH]n1` the value was 0.1 µg/mL (≈ 0.192 µM).
Turning to `CC1(C)S[C@@H]2[C@H](NC(=O)[C@H](NC(=O)NC(=O)c3cc(Br)cc(Br)c3)c3ccccc3)C(=O)N2[C@H]1c1nn[nH]n1`, the MIC is < 0.1 µg/mL.
Still for that read-out and setting: for `CC1(C)S[C@@H]2[C@H](NC(=O)[C@H](NC(=O)NC(=O)C3CC3)c3ccccc3)C(=O)N2[C@H]1c1nn[nH]n1` the value was < 0.1 µg/mL.
Take `COc1ccc(C(=N)NC(=O)NCC(=O)N[C@@H]2C(=O)N3[C@@H]2SC(C)(C)[C@@H]3c2nnn[nH]2)cc1`: the MIC stood at 0.1 µg/mL (≈ 0.211 µM).
On the same count and under the same terms, then `CC1(C)S[C@@H]2[C@H](NC(=O)[C@H](NC(=O)CSc3nc4ccccc4[nH]3)c3ccccc3)C(=O)N2[C@H]1c1nn[nH]n1`, with < 0.1 µg/mL; and `CC1(C)S[C@@H]2[C@H](NC(=O)[C@H](NC(=O)CNC(=N)c3nc4ccccc4s3)c3ccccc3)C(=O)N2[C@H]1c1nnn[nH]1`, with < 0.1 µg/mL; and `CC1(C)S[C@@H]2[C@H](NC(=O)[C@H](NC(=O)Cc3ccco3)c3ccccc3)C(=O)N2[C@H]1c1nnn[nH]1`, with < 0.1 µg/mL.
On the same count and under the same terms, then `CC1(C)S[C@@H]2[C@H](NC(=O)[C@H](NC(=O)CNC(=N)c3cnc4ccccc4n3)c3ccccc3)C(=O)N2[C@H]1c1nnn[nH]1`, with 0.1 µg/mL (≈ 0.171 µM).
Same read-out and setting: for `CC1(C)S[C@@H]2[C@H](NC(=O)[C@H](NC(=O)Cc3cccs3)c3ccccc3)C(=O)N2[C@H]1c1nnn[nH]1` the value was 0.1 µg/mL (≈ 0.201 µM); for `CC1(C)S[C@@H]2[C@H](NC(=O)[C@H](NC(=O)CNC(=O)NC(=N)NCc3ccccc3)c3ccccc3)C(=O)N2[C@H]1c1nn[nH]n1`, 0.1 µg/mL (≈ 0.165 µM); for `CCNC(=N)NC(=O)NCC(=O)N[C@@H](C(=O)N[C@@H]1C(=O)N2[C@@H]1SC(C)(C)[C@@H]2c1nn[nH]n1)c1ccccc1`, < 0.1 µg/mL.
As to `CNC(=N)NC(=O)NCC(=O)N[C@@H](C(=O)N[C@@H]1C(=O)N2[C@@H]1SC(C)(C)[C@@H]2c1nn[nH]n1)c1ccccc1`, the MIC was < 0.1 µg/mL.
Same read-out and setting: for `CC1(C)S[C@@H]2[C@H](NC(=O)[C@H](NC(=O)CNC(=O)NC(=O)c3ccccc3)c3ccccc3)C(=O)N2[C@H]1c1nnn[nH]1` the value was < 0.1 µg/mL; for `COc1ccc(CC(=O)N[C@@H](C(=O)N[C@@H]2C(=O)N3[C@@H]2SC(C)(C)[C@@H]3c2nnn[nH]2)c2ccccc2)cc1`, 0.1 µg/mL (≈ 0.192 µM).
Still for that read-out and setting: for `CC1(C)S[C@@H]2[C@H](NC(=O)[C@H](NC(=O)CSC3=NC(=O)CN3)c3ccccc3)C(=O)N2[C@H]1c1nn[nH]n1` the value was 0.1 µg/mL (≈ 0.189 µM); for `CCOC(=O)CC(=O)N[C@@H](C(=O)N[C@@H]1C(=O)N2[C@@H]1SC(C)(C)[C@@H]2c1nnn[nH]1)c1ccccc1`, < 0.1 µg/mL; for `CCSCC(=O)N[C@@H](C(=O)N[C@@H]1C(=O)N2[C@@H]1SC(C)(C)[C@@H]2c1nnn[nH]1)c1ccccc1`, < 0.1 µg/mL.
Still for that read-out and setting: then `CC1(C)S[C@@H]2[C@H](NC(=O)[C@H](NC(=O)CNC(=N)c3cccc(C(N)=O)c3)c3ccccc3)C(=O)N2[C@H]1c1nnn[nH]1`, with < 0.1 µg/mL; and `CC1(C)S[C@@H]2[C@H](NC(=O)[C@H](NC(=O)CSc3ccccc3)c3ccccc3)C(=O)N2[C@H]1c1nnn[nH]1`, with < 0.1 µg/mL; and `CC1(C)S[C@@H]2[C@H](NC(=O)[C@H](NC(=O)c3ccc[nH]3)c3ccccc3)C(=O)N2[C@H]1c1nnn[nH]1`, with < 0.1 µg/mL.
`CC1(C)S[C@@H]2[C@H](NC(=O)[C@H](NC(=O)c3cccs3)c3ccccc3)C(=O)N2[C@H]1c1nnn[nH]1`: the MIC was < 0.1 µg/mL.
Same read-out and setting: for `CC1(C)S[C@@H]2[C@H](NC(=O)[C@H](NC(=O)CCNC(=O)c3ccco3)c3ccccc3)C(=O)N2[C@H]1c1nnn[nH]1` the value was < 0.1 µg/mL; for `CC1(C)S[C@@H]2[C@H](NC(=O)[C@H](NC(=O)NC(=O)Cc3ccccc3)c3ccccc3)C(=O)N2[C@H]1c1nn[nH]n1`, < 0.1 µg/mL; for `CC1(C)S[C@@H]2[C@H](NC(=O)[C@H](NC(=O)CCNC(=N)c3cccs3)c3ccccc3)C(=O)N2[C@H]1c1nnn[nH]1`, < 0.1 µg/mL.
Same read-out and setting: then `CC1(C)S[C@@H]2[C@H](NC(=O)[C@H](NC(=O)CCNC(=O)c3cccc(Cl)c3)c3ccccc3)C(=O)N2[C@H]1c1nnn[nH]1`, with < 0.1 µg/mL; and `Cc1cc(C(=O)NC(=O)N[C@@H](C(=O)N[C@@H]2C(=O)N3[C@@H]2SC(C)(C)[C@@H]3c2nn[nH]n2)c2ccccc2)on1`, with < 0.1 µg/mL.
The same measure, in the same setting: then `CNC(=O)NCCC(=O)N[C@@H](C(=O)N[C@@H]1C(=O)N2[C@@H]1SC(C)(C)[C@@H]2c1nnn[nH]1)c1ccccc1`, with < 0.1 µg/mL; and `CC1(C)S[C@@H]2[C@H](NC(=O)[C@H](NC(=O)CCNC(=O)Nc3ccccc3)c3ccccc3)C(=O)N2[C@H]1c1nnn[nH]1`, with < 0.1 µg/mL.
Consider `CC1(C)S[C@@H]2[C@H](NC(=O)[C@H](NC(=O)CCNC(=N)c3cc(Br)cc(Br)c3)c3ccccc3)C(=O)N2[C@H]1c1nnn[nH]1`, for which the MIC is < 0.1 µg/mL.
The same measure, in the same setting: then `CC1(C)S[C@@H]2[C@H](NC(=O)[C@H](NC(=O)CCNC(=O)c3ccc(Cl)cc3)c3ccccc3)C(=O)N2[C@H]1c1nnn[nH]1`, with < 0.1 µg/mL; and `CC1(C)S[C@@H]2[C@H](NC(=O)[C@H](NC(=O)CCNC(=N)c3ccncc3)c3ccccc3)C(=O)N2[C@H]1c1nnn[nH]1`, with < 0.1 µg/mL.
Same read-out and setting: then `CC(=N)NCCC(=O)N[C@@H](C(=O)N[C@@H]1C(=O)N2[C@@H]1SC(C)(C)[C@@H]2c1nnn[nH]1)c1ccccc1`, with < 0.1 µg/mL; and `CC(=O)NCCC(=O)N[C@@H](C(=O)N[C@@H]1C(=O)N2[C@@H]1SC(C)(C)[C@@H]2c1nnn[nH]1)c1ccccc1`, with < 0.1 µg/mL.
Still for that read-out and setting: then `CC1(C)S[C@@H]2[C@H](NC(=O)[C@H](NC(=O)CCNC(=O)c3ccccc3)c3ccccc3)C(=O)N2[C@H]1c1nnn[nH]1`, with < 0.1 µg/mL.
As for `CC1(C)S[C@@H]2[C@H](NC(=O)[C@H](NC(=O)c3cccnc3)c3ccccc3)C(=O)N2[C@H]1c1nnn[nH]1`, the MIC was < 0.1 µg/mL.
Still for that read-out and setting: for `CC1(C)S[C@@H]2[C@H](NC(=O)[C@H](NC(=O)OCc3ccccc3)c3ccccc3)C(=O)N2[C@H]1c1nnn[nH]1` the value was < 0.1 µg/mL; for `CCOC(=O)C(=O)N[C@@H](C(=O)N[C@@H]1C(=O)N2[C@@H]1SC(C)(C)[C@@H]2c1nnn[nH]1)c1ccccc1`, < 0.1 µg/mL.

Staying with this assay, now noted: Streptococcus pyogenes; Table II; two-fold serial dilution, Brain-Heart Infusion broth, overnight; read-out: MIC vs. Strep. pyogenes.
In the case of `CC1(C)S[C@@H]2[C@H](NC(=O)[C@H](NC(=O)CNC(=O)NC(=N)c3ccccc3)c3ccccc3)C(=O)N2[C@H]1c1nnn[nH]1`, the MIC is 0.78 µg/mL (≈ 1.35 µM).
Same read-out and setting: for `COc1ccc(C(=N)NC(=O)NCC(=O)N[C@@H](C(=O)N[C@@H]2C(=O)N3[C@@H]2SC(C)(C)[C@@H]3c2nnn[nH]2)c2ccccc2)cc1` the value was 1.56 µg/mL (≈ 2.57 µM).
As to `CC1(C)S[C@@H]2[C@H](NC(=O)[C@H](NC(=O)NC(=O)c3ccncc3)c3ccccc3)C(=O)N2[C@H]1c1nn[nH]n1`, the minimal inhibitory concentration (MIC) amounted to 0.2 µg/mL (≈ 0.383 µM).
On to `CC1(C)S[C@@H]2[C@H](NC(=O)C(Cc3ccccc3)NC(=N)c3ccncc3)C(=O)N2[C@H]1c1nnn[nH]1` (stereo partly drawn), for which the MIC came to 0.2 µg/mL (≈ 0.407 µM).
Still for that read-out and setting: for `CC1(C)S[C@@H]2[C@H](NC(=O)[C@H](NC(=O)CNC(=N)Cc3ccc(Cl)cc3)c3ccccc3)C(=O)N2[C@H]1c1nnn[nH]1` the value was 0.2 µg/mL (≈ 0.344 µM); for `CC1(C)S[C@@H]2[C@H](NC(=O)[C@H](NC(=O)CSc3ncc[nH]3)c3ccccc3)C(=O)N2[C@H]1c1nn[nH]n1`, 0.2 µg/mL (≈ 0.389 µM); for `CC1(C)S[C@@H]2[C@H](NC(=O)[C@H](NC(=O)CNC(=N)c3ncccn3)c3ccccc3)C(=O)N2[C@H]1c1nnn[nH]1`, 0.78 µg/mL (≈ 1.46 µM).
On the same count and under the same terms, then `CC1(C)S[C@@H]2[C@H](NC(=O)[C@H](NC(=O)CNC(=O)NC(=N)N)c3ccccc3)C(=O)N2[C@H]1c1nn[nH]n1`, with 3.12 µg/mL (≈ 6.05 µM); and `CCCCN=C(NCCCC)SCC(=O)N[C@@H](C(=O)N[C@@H]1C(=O)N2[C@@H]1SC(C)(C)[C@@H]2c1nn[nH]n1)c1ccccc1`, with 0.004 µg/mL (≈ 0.00665 µM); and `CCN=C(NCC)SCC(=O)N[C@@H](C(=O)N[C@@H]1C(=O)N2[C@@H]1SC(C)(C)[C@@H]2c1nn[nH]n1)c1ccccc1`, with 0.004 µg/mL (≈ 0.00733 µM).
On to `CC1(C)S[C@@H]2[C@H](NC(=O)[C@H](NC(=O)CSC(=N)N)c3ccccc3)C(=O)N2[C@H]1c1nn[nH]n1`, for which the MIC came to 0.004 µg/mL (≈ 0.00817 µM).
Same read-out and setting: for `CC1(C)S[C@@H]2[C@H](NC(=O)[C@H](NC(=O)CNC(=O)OCc3ccccc3)c3ccccc3)C(=O)N2[C@H]1c1nnn[nH]1` the value was 0.39 µg/mL (≈ 0.691 µM); for `CC1(C)S[C@@H]2[C@H](NC(=O)[C@H](NC(=O)CNC(=N)c3cccc(C#N)c3)c3ccccc3)C(=O)N2[C@H]1c1nnn[nH]1`, 6.25 µg/mL (≈ 11.2 µM).
Same read-out and setting: for `CC1(C)S[C@@H]2[C@H](NC(=O)[C@H](NC(=O)Cc3ccc(NC(=N)N)cc3)c3ccccc3)C(=O)N2[C@H]1c1nn[nH]n1` the value was 1.56 µg/mL (≈ 2.84 µM); for `CC1(C)S[C@@H]2[C@H](NC(=O)[C@H](NS(=O)(=O)c3cccs3)c3ccccc3)C(=O)N2[C@H]1c1nn[nH]n1`, 0.39 µg/mL (≈ 0.751 µM).
As for `CC1(C)S[C@@H]2[C@H](NC(=O)[C@H](NS(=O)(=O)c3ccc4ccccc4c3)c3ccccc3)C(=O)N2[C@H]1c1nn[nH]n1`, the MIC was 0.2 µg/mL (≈ 0.355 µM).
For `COc1ccc(S(=O)(=O)N[C@@H](C(=O)N[C@@H]2C(=O)N3[C@@H]2SC(C)(C)[C@@H]3c2nn[nH]n2)c2ccccc2)cc1`, the MIC amounted to 0.2 µg/mL (≈ 0.368 µM).
Same read-out and setting: for `CC1(C)S[C@@H]2[C@H](NC(=O)[C@H](NC(=O)C(=O)Oc3ccccc3)c3ccccc3)C(=O)N2[C@H]1c1nnn[nH]1` the value was 25 µg/mL (≈ 47.9 µM).
